Assay [1] has as its system S. aureus strain ATCC 33591 (MRSA-strain). The conditions noted are these: 5 mg/kg IP TID; 24 h post infection. How it is done:
Organ samples were thawed and homogenized using a Polytron tissue homogenizer after addition of 3 mL isotonic sodium chloride solution. First, a calibration curve was prepared by spiking different concentrations of CorA into the respective matrix from CD-1 mice. Caffeine was used as an internal standard. In addition, quality control samples (QCs) were prepared for CorA for every matrix. For PD samples, calibration curve and QCs were prepared for levofloxacin using the same protocol. The following extraction procedure was used: 50 µL of a sample (calibration sample, QCs, PK or PD sample) was extracted with 20 µL of acetic acid in water (10/90 (v/v)) and 30 µL acetonitrile for 5 min at 800 rpm on an Eppendorf MixMate® vortex mixer. Then, samples were spun down for 20 min at 4 °C and 4000 rpm and supernatants were transferred to new Greiner 96-well V-bottom plates. Samples were analyzed using an Agilent 1290 Infinity II HPLC system (Waldbronn, Germany) coupled to an AB Sciex QTrap6500plus mass spectrometer (Darmstadt, Germany). LC conditions were as follows: column: Agilent Zorbax Exlipse Plus C18, 50 × 2.1 mm, 1.8 µm; temperature: 30 °C; injection volume: 5 µL per sample; flow rate: 800 µL/min. Samples were run under buffered conditions: A: 95% water + 5% acetonitrile + 5 mM ammonium acetate + 40 µL/L acetic acid; B: 95% acetonitrile + 5% water + 5 mM ammonium acetate + 40 µL/L acetic acid. The gradient was as follows: 99% A at 0 min, 99% A until 0.1 min, 99–0% A from 0.1 min to 4.0 min, 0% A until 4.5 min. Mass transitions for controls and compounds are depicted in Table S1. Peaks of PK samples were quantified using the calibration curve. The accuracy of the calibration curve was determined using QCs independently prepared on different days. PK parameters were determined using a non-compartmental analysis with PKSolver.
Inocula were prepared as described previously with the modification that isotonic sodium chloride solution was used instead of PBS [25]. For the neutropenic thigh and the neutropenic lung infection model the S. aureus strain ATCC 33591 (MRSA-strain) was used. For the neutropenic lung infection model an inoculum of 2 × 10^9 cfu/mL was used. For the neutropenic thigh infection model an inoculum of 7 × 10^5 cfu/mL was used.
The model was conducted as described previously. In brief, the following groups were used: (1) inoculum control group with terminal endpoint at 2 h post infection to determine baseline inoculum in vivo; (2) vehicle-treated group receiving 20 mg/kg SC tramadol and vehicle (PEG400/PBS (80:20 (v/v)); (3) levofloxacin group 5 mg/kg IP three times a day (TID) (t = 2, 6 and 10 h post infection); (4) CorA 60 mg/kg IP TID (t = 2, 6 and 10 h post infection) and (5) CorA 100 mg/kg IP BID (t = 2 and 6 h post infection). The endpoint for groups no. 2–5 was 24 h post infection. A solution of […].

Assay [2] has the same test system. The experiment in a line: Neutropenic lung infection model with MRSA. Type of assay: in vivo, Staphylococcus aureus. As to conditions: 100 mg/kg IP (t = 2 h post infection); 24 h post infection. As for the experimental part:
Female, 8-week-old CD-1 mice (Charles River, Sulzfeld, Germany) were used (n = 6 animals per group). Animals were rendered neutropenic by administration of 150 mg/kg and 100 mg/kg cyclophosphamide IP on days -4 and -1, respectively. On the day of infection (day 0), mice received 15 µL of the inoculum administered via an Aeroneb® nebulizer device (Kent Scientific, Torrington, CT, USA) under anesthesia (100 mg/kg ketamine and 10 mg/kg xylazine). Mice were treated with (I) vehicle IP (PEG400/PBS), (II) with levofloxacin at 100 mg/kg IP (t = 2 h post infection, positive control group), (III) CorA at 60 mg/kg IP TID (t = 2, 5 and 9 h post infection) or (IV) CorA at 60 mg/kg IP (t = 2 h post infection) and 100 mg/kg SC BID (t = 5 and 9 h post infection).
Twenty-four hours after infection, mice were euthanized, blood was removed from the heart and lungs were aseptically removed. Whole blood was collected into Eppendorf (Hamburg, Germany) tubes coated with 0.5 M EDTA, immediately spun down at 13,000 rpm for 10 min at 4 °C, the plasma transferred into a new Eppendorf tube and stored at −80 °C until analysis. Organs were homogenized in isotonic sodium chloride solution and plated onto blood agar plates in duplicates in serial dilutions and incubated at 37 °C for 24 h.

The record followed here is publication PMC9860980, “Pharmacokinetics and Pharmacodynamics (PK/PD) of Corallopyronin A against Methicillin-Resistant Staphylococcus aureus” (Pharmaceutics, 2022).

On to `C[C@H]1COc2c(N3CCN(C)CC3)c(F)cc3c(=O)c(C(=O)O)cn1c23` [Levofloxacin, reference compound], for which, in assay [1], the “bacterial burden in thigh tissue” value was “significant reduction” and the “reduction of bacterial burden in lung tissue compared to the vehicle-treated group” value is “approximately 2 log10-units”. The “reduction in bacterial burden in lung tissue” value in assay [2] is given as “more than 2 log10-units”.
